Laboratory results from patent US20210043958A1, “AQUEOUS COMPOSITION AS ELECTROLYTE COMPRISING IONIC LIQUIDS OR LITHIUM SALTS” (KIST EUROPE FORSCHUNGSGESELLSCHAFT MBH, priority 2018, published 2021).
Converted amounts (≈) assume the structure as drawn. Blank lines part the entries; values can stand above or below the molecule they belong to.

Experiments:
[1] = Solubility of organic compounds in supporting electrolyte at room temperature; format: physicochemical; details: for solubility: thermodynamic from solid
Description: The last recorded amount was recognized as the solubility of the organics.

[2] = Cyclic voltammetry in three-electrode cell (glassy carbon / Pt foil / Ag wire); format: physicochemical
Description: FIGS. 2a and 2b compare cyclic voltammetry curves of 0.1 M 2-methoxyhydroquinone in pure water and other aqueous ionic liquid, aqueous lithium salt (molality: 10 m), with and without the addition of 1 M HCl. Potential sweep rate: 50 mV s^−1. Working electrode: glassy carbon; Counter electrode: Pt foil; Reference electrode: Ag wire.
FIG. 5a depicts the chemical structure of 2-[(2,5-dihydroxyphenyl)sulfanyl]ethan-1-aminium chloride. FIGS. 5b and 5c show the cyclic voltammetry curves of 0.1 M 2-[(2,5-dihydroxyphenyl) sulfanyl]ethan-1-amonium chloride in pure water and in 1 M HCl. Potential sweep rate: 20 mV s^−1. Working electrode: glassy carbon; Counter electrode: Pt foil; Reference electrode: Ag wire.
FIGS. 6a and 6b compare the cyclic voltammetry curves of 0.1 M 2-[(2,5-dihydroxyphenyl) sulfanyl]ethan-1-amonium chloride in concentrated LiTFSI and BMImCl without and with the addition of 1 M HCl. Potential sweep rate: 20 mV s^−1. Working electrode: glassy carbon; Counter electrode: Pt foil; Reference electrode: Ag wire.
CV measurements were performed in a three-electrode cell consisting of a glassy carbon rod working electrode, a platinum foil counter electrode and a silver wire quasi-reference electrode. CV measurements of 2-methoxyhydroquinone in water (FIG. 2a) and different aqueous ionic liquids and salt (FIG. 2b) were performed.
For the CV measurement in water, KCl was added as supporting salt. […] The average redox potential in water is 0.27 V vs. Ag but with large peak separation of 0.64 V (FIG. 2a).

[3] = 10 m BMImCl-H2O, aqueous with cosolvent or surfactant or cyclodextrin, 10 m BMImCl-H2O, a: without additive
[4] = 10 m LiTFSI-H2O, aqueous with cosolvent or surfactant or cyclodextrin, 10 m LiTFSI-H2O, a: without additive
[5] = 10 m LiTFSI-H2O, aqueous with cosolvent or surfactant or cyclodextrin, LiTFSI—H2O (10 m), neutral, no additive
[6] = 10 m TBACl-H2O, aqueous with cosolvent or surfactant or cyclodextrin, 10 m TBACl-H2O, a: without additive
[7] = water, H2O, a: without additive
[8] = 0.1 M in BMImCl—H2O, 20 mV s^−1
[9] = 0.1 M in LiTFSI—H2O, 20 mV s^−1
[10] = 10 m BMImCl-H2O, aqueous with cosolvent or surfactant or cyclodextrin, BMImCl—H2O (10 m / concentrated), neutral, no additive
[11] = 0.1 M in 10 m BMImCl—H2O, 50 mV s^−1
[12] = 0.1 M in 10 m LiTFSI—H2O, 50 mV s^−1
[13] = 0.1 M in 10 m TBACl—H2O, 50 mV s^−1
[14] = 0.1 M in water, KCl supporting salt, 50 mV s^−1
[15] = BMImCl—H2O, acidic conditions (1 M HCl)
[16] = LiTFSI—H2O, acidic conditions (1 M HCl)
[17] = TBACl—H2O, acidic conditions (1 M HCl)
[18] = water, acidic conditions (1 M HCl)

Compound: COc1cc(O)cc(OC)c1O [2,6-dimethoxyhydroquinone]
- solubility ([1]; 10 m BMImCl-H2O with 1 M HCl, aqueous with cosolvent or surfactant or cyclodextrin, 10 m BMImCl-H2O, b: with 1 M HCl): < 100 mM
- solubility [1, 3]: < 100 mM
- solubility ([1]; 10 m LiTFSI-H2O with 1 M HCl, aqueous with cosolvent or surfactant or cyclodextrin, 10 m LiTFSI-H2O, b: with 1 M HCl): 500 mM (≈ 85.1 mg/mL)
- solubility [1, 4]: 700 mM (≈ 119 mg/mL)
- solubility [1, 5]: 700 mM (≈ 119 mg/mL)
- solubility ([1]; 10 m TBACl-H2O with 1 M HCl, aqueous with cosolvent or surfactant or cyclodextrin, 10 m TBACl-H2O, b: with 1 M HCl): 100 mM (≈ 17 mg/mL)
- solubility [1, 6]: 200 mM (≈ 34 mg/mL)
- Solubility (in words) ([1]; BMImCl—H2O): limited
- Solubility (in words) ([1]; TBACl—H2O): limited
- solubility ([1]; acidic LiTFSI-H2O, aqueous with cosolvent or surfactant or cyclodextrin, acidic LiTFSI—H2O): 500 mM (≈ 85.1 mg/mL)
- Solubility (in words) ([1]; water): insoluble
- solubility ([1]; water with 1 M HCl, aqueous buffer, H2O, b: with 1 M HCl): < 100 mM
- solubility [1, 7]: < 100 mM

Compound: Cl.NCCSc1cc(O)ccc1O [2-[(2,5-dihydroxyphenyl)sulfanyl]ethan-1-aminium chloride]
- average oxidation and reduction potential ([2]; 0.1 M in BMImCl—H2O with addition of HCl (1 M), 20 mV s^−1): 0.61 V
- average oxidation and reduction potential [2, 8]: 0.50 V vs. Ag
- peak separation [2, 8]: 0.61 V
- reduction of peak separation on addition of HCl ([2]; 0.1 M in BMImCl—H2O, with vs. without HCl (1 M)): 0.07 V
- oxidation peak [2, 9]: 0.70 V vs. Ag
- reduction peak [2, 9]: 0.08 V vs. Ag
- redox reversibility ([2]; 0.1 M in pure water and in 1 M HCl, 20 mV s^−1): poor redox reversibility
- stability and reversibility ([2]; in aqueous ionic liquids or lithium salt): excellent stability and reversibility
- chemical and electrochemical stability ([2]; in water): chemically and electrochemically instable
- solubility [1, 10]: 1200 mM
- solubility ([1]; acidic BMImCl-H2O, aqueous with cosolvent or surfactant or cyclodextrin, acidic BMImCl—H2O): 900 mM
- solubility ([1]; pure water): 2000 mM

Compound: CC[N+](CC)(CC)Cc1ccc2c(c1)C(=O)c1ccccc1C2=O.[Br-] [2-methanaminium-N,N,N-triethyl-9,10-anthraquinone bromide]
- Solubility (in words) ([1]; 5 m LiTFSI—H2O): poor
- solubility [1, 3]: < 100 mM
- solubility ([1]; 10 m LiTFSI with triethanolamine, aqueous with cosolvent or surfactant or cyclodextrin, 10 m LiTFSI with 0.3 g triethanolamine per milliliter): 300 mM
- solubility [1, 4]: 500 mM
- solubility [1, 5]: 500 mM
- solubility ([1]; 10 m TBACl-H2O with triethanolamine, aqueous with cosolvent or surfactant or cyclodextrin, 10 m TBACl-H2O, c: with 0.3 g triethanolamine per mL solvent): < 100 mM
- solubility [1, 6]: < 100 mM
- Solubility (in words) ([1]; 15 m LiTFSI—H2O): soluble
- solubility ([1]; supporting electrolyte, aqueous with cosolvent or surfactant or cyclodextrin, 10 m BMImCl-H2O, c: with 0.3 g triethanolamine per mL solvent): < 100 mM
- solubility ([1]; supporting electrolyte, aqueous with cosolvent or surfactant or cyclodextrin, 10 m LiTFSI-H2O, c: with 0.3 g triethanolamine per mL solvent): 300 mM
- solubility ([1]; supporting electrolyte, aqueous with cosolvent or surfactant or cyclodextrin, H2O, c: with 0.3 g triethanolamine per mL solvent): < 100 mM
- solubility [1, 7]: < 100 mM

Results, then the molecule that gave them:

- average redox potential [2, 11]: 0.51 V vs. Ag
- peak separation [2, 11]: 0.53 V
- average redox potential [2, 12]: 0.38 V vs. Ag
- peak separation [2, 12]: 0.48 V
- average redox potential [2, 13]: 0.54 V vs. Ag
- polarization (peak separation) [2, 13]: 0.87 V
- average redox potential [2, 14]: 0.27 V vs. Ag
- peak separation [2, 14]: 0.64 V
- peak separation ([2]; 10 m BMImCl—H2O with 1 M H3PO4): 0.42 V
- average redox potential ([2]; 10 m BMImCl—H2O with H3PO4 from 1 M to 3 M): 0.50 V vs. Ag
- peak separation [2, 15]: 0.30 V
- redox potential [2, 15]: 0.58 V vs. Ag
- peak separation [2, 16]: 0.38 V
- redox potential [2, 16]: 0.55 V vs. Ag
- peak separation [2, 17]: 0.54 V
- redox potential [2, 17]: 0.58 V vs. Ag
- peak separation [2, 18]: 0.40 V
- redox potential [2, 18]: 0.35 V vs. Ag
- solubility [1, 10]: 6000 mM (≈ 841 mg/mL)
- solubility [1, 5]: 4200 mM (≈ 589 mg/mL)
- solubility ([1]; pure water, water): 1800 mM (≈ 252 mg/mL)
Compound: COc1cc(O)ccc1O [2-methoxyhydroquinone]

- solubility [1, 3]: 4000 mM (≈ 609 mg/mL)
- solubility [1, 10]: 4000 mM (≈ 609 mg/mL)
- solubility [1, 4]: 4000 mM (≈ 609 mg/mL)
- solubility [1, 5]: 4000 mM (≈ 609 mg/mL)
- solubility [1, 6]: 4000 mM (≈ 609 mg/mL)
- solubility ([1]; TBACl-H2O, aqueous with cosolvent or surfactant or cyclodextrin, TBACl—H2O): 4000 mM (≈ 609 mg/mL)
- Solubility (in words) ([1]; water): slightly soluble
- solubility [1, 7]: < 100 mM
Compound: COc1cc(C=O)ccc1O [vanillin, Vanillin]
